Our source for the Ki, IC50 and EC50 values is ChEMBL document CHEMBL1149326, “Inhibitors of farnesyltransferase: a rational approach to cancer chemotherapy?” (J Med Chem, 2004).

The target of assay [1] is T1, Protein farnesyltransferase (Homo sapiens, UniProt P49354+P49356). Put plainly: Inhibition binding constant against Farnesyltransferase. The format is protein-complex assay.
The target of assay [2] is T2, Geranylgeranyl transferase type I (Homo sapiens, UniProt P49354+P53609). Put plainly: Inhibition binding constant against Geranylgeranyl transferase type I. In kind it is protein-complex assay.
Assay [3] has as its system NIH3T3. Put plainly: Inhibition of growth of H-ras-transformed 3T3 fibroblasts.
Assay [4] concerns the target T1, Protein farnesyltransferase. The experiment in a line: Inhibitory concentration against farnesyltransferase was determined. In kind it is protein-complex assay.
The target in assay [5] is T2, Geranylgeranyl transferase type I. The experiment in a line: Inhibition binding constant Geranylgeranyl transferase type I. In kind it is protein-complex assay.
Assay [6] deals with Rat1. The experiment in a line: Inhibition of H-ras-transformed Rat1 cells. In kind it is functional, cell-based. As to conditions: Rattus norvegicus.
The target in assay [7] is T1, Protein farnesyltransferase. The experiment in a line: Effective concentration required to inhibit HDJ2 farnesylation in PSN-1 cells. The format is functional, cell-based.

What is called Ki is a dissociation constant, usually derived from enzyme kinetics or from competition with a known ligand. A higher Ki goes with weaker binding. By IC50 is commonly meant the concentration needed to halve the response being measured. High values mean a need for much substance, low ones inhibition by little substance. What is called EC50 is the midpoint of the concentration-response curve.

Consider `CSCC[C@H](NC(=O)c1cc(NC[C@@H]2C[C@H](SC(=O)c3cccnc3)CN2)ccc1CCc1ccc(F)cc1)C(=O)OC(C)C`, for which the values for the Ki in assay [1] and in assay [2] were less than 1 nM and 8 nM, respectively. It took 49 nM to reach half-maximal inhibition in assay [3] (IC50). `CC[C@@H](C)[C@@H](CO[C@@H](Cc1ccccc1)C(=O)N[C@@H](CCS(C)(=O)=O)C(=O)O)NC[C@@H](N)S` yielded an IC50 in assay [4] of 1.8 nM.

Compound `CC(=O)N1CCC(=C2c3ccc(Cl)cc3CCc3cccnc32)CC1` [SCH-37370] returned an IC50 in assay [4] of 27000 nM. As to `COC(=O)[C@H](CC(C)C)NC(=O)c1ccc(NC[C@@H](N)CS)cc1-c1cccc2ccccc12`, the IC50 in assay [5] was 54 nM. For `CC[C@@H](C)[C@@H](CN(CC(=O)N[C@@H](CCSC)C(=O)OC)Cc1cccc2ccccc12)NC(=O)Cc1cncn1Cc1ccc(C#N)cc1`, the half-maximal inhibitory concentration (IC50) in assay [6] was 630 nM. Regarding `N#Cc1ccc2cc1Oc1ccc3cccc(c3c1)N1CCN(CC1=O)Cc1cncn1C2`, in assay [4], the IC50 stood at 0.2 nM. Take `N#Cc1ccc2cc1Oc1ccc3c(c1)[C@@H](CCC3)N1CC[C@@H](NCc3cncn3C2)C1=O`: in assay [4], the IC50 is less than 1 nM. In assay [7], this compound yielded an EC50 of 0.18 nM. `O=C(c1ccccc1OC(F)(F)F)N1CCN(Cc2cnc[nH]2)c2ccc(-c3ccncc3)cc2C1` registered an IC50 in assay [4] of 24 nM.
